Laboratory results from US7795437B2, “Ether derivatives” (Hoffmann-La Roche Inc., priority 2006, dated 2010).

Columns and labels:
[1] = molecular target: T1, human D3 dopamine receptor (Homo sapiens, UniProt P35462); test: Radioligand binding to cloned human D3 receptor ([3H]-spiperone); settings: first value of D3/5HT2A/D2; membranes of transfected HEK-293 EBNA cells, 0.5 nM [3H]-spiperone, 1 h at RT
T1 construct: expressed in transfected cells; host or cells: HEK-293 EBNA cells (transient transfection; membrane preparation)
Protocol: (§1) The ability of compounds of the present invention to bind to the 5-HT2A, D3 and D2 receptors was determined using radioligand binding to cloned receptors selectively expressed in HEK-293 EBNA cells.
(§2) Membrane Preparation for Human D2, Human D3 and Human 5-HT2A Receptors
(§3) HEK-293 EBNA cells were transiently transfected with expression plasmids encoding for the human D2 or D3 dopamine- or for the human 5-HT2A serotonin receptor, respectively. The cells were harvested 48 hours post-transfection, washed three times with cold phosphate buffered saline (PBS) and stored at −80° C. prior to use. The pellet was suspended in cold 50 mM Tris-HCl buffer containing 10 mM EDTA (pH 7.4) and homogenized with a Polytron (Kinematica AG, Basel, Switzerland) for 20-30 seconds at 12.000 rpm. After centrifugation at 48.000×g for 30 minutes at 4° C., the pellet was resuspended in cold 10 mM Tris-HCl buffer containing 0.1 mM EDTA (pH 7.4), homogenized, and centrifuged as above. This pellet was further resuspended in a smaller volume of ice cold 10 mM Tris-HCl buffer containing 0.1 mM EDTA (pH 7.4) and homogenized with a Polytron for 20-30 sec at 12.000 rpm. The protein content of this homogenate was determined with the Bio-Rad (Bradford) Protein Assay (Biorad Laboratories GmbH, München, Germany) according to the instructions of the manufacturer using gamma globulin as the standard. This homogenate was stored at −80° C. in aliquots and thawed immediately prior to use.
(§4) Radioligand Binding Assay Conditions
(§5) Aliquots of membrane preparations were thawed at room temperature, resuspended in assay buffer (D2, D3: 50 mM Tris-HCl, 120 mM NaCl, 5 mM MgCl2, 1 mM EDTA, 5 mM KCl, 1.5 mM CaCl2, pH=7.4; 5-HT2A: 50 mM Tris-HCl, 10 mM MgCl2, 1 mM EGTA, pH=7.4), homogenized with a Polytron for 20-30 seconds at 12.000 rpm and adjusted to a final concentration of approximately 7.5 μg protein/well (D2, D3) and 15 μg protein/well (5-HT2A), respectively.
(§6) The binding affinity (Ki) of the compounds was determined using radioligand binding. Membranes were incubated in a total volume of 200 μl with a fixed concentration of radioligand (final concentration approximately 0.7 nM [^3H]-spiperone for D2, 0.5 nM [^3H]-spiperone for D3, and 1.1 nM [^3H]-ketanserin for 5-HT2A) and ten concentrations of test compound ranging between 10 μM-0.1 nM for 1 h at RT. At the end of the incubation, the reaction mixtures were filtered on to unifilter 96-well white microplates with bonded GF/C filters (Packard BioScience, Zudrich, Switzerland; preincubated for 1 h in 0.1% polyethylenimine (PEI) in assay buffer) with a Filtermate 196 harvester (Packard BioScience) and washed 3 times with cold assay buffer. The nonspecific binding was determined with equally composed reaction mixtures in the presence of 10 μM unlabelled spiperone. Per well 45 μl of Microscint 40 (Perkin Elmer, Schwerzenbach, Switzerland) was added, plates for sealed, shaken for 20 min and counted for 3 minutes on a Topcount Microplate Scintillation Counter (Can berra Packard SA, Zu-rich, Switzerland) with quenching correction.
(§7) The CPM value for each duplicate of a concentration of competing compound was averaged (y1), then the % specific binding was calculated according to the equation (((y1−non-specific)/(total binding-non-specific))×100). Graphs were plotted with the % specific binding using XLfit, a curve fitting program that iteratively plots the data using Levenburg Marquardt algorithm. The single site competition analysis equation used was y=A+((B−A)/(1+((x/C)^D))), where y is the % specific binding, A is the minimum y, B is the maximum y, C is the IC50, x is the log10 of the concentration of the competing compound and D is the slope of the curve (the Hill Coefficient). From these curves the IC50 (inhibition concentration at which 50% specific binding of the radioligand was displaced) and Hill coefficient were determined. […]

[2] = molecular target: T2, human 5-HT2A serotonin receptor (Homo sapiens, UniProt P28223); test: Radioligand binding to cloned human 5-HT2A receptor ([3H]-ketanserin); settings: second value of D3/5HT2A/D2; membranes of transfected HEK-293 EBNA cells, 1.1 nM [3H]-ketanserin, 1 h at RT
T2 construct: expressed in transfected cells; host or cells: HEK-293 EBNA cells (transient transfection; membrane preparation)
Protocol: as §1, §2, §3, §4, §5, §6, §7

[3] = molecular target: T3, human D2 dopamine receptor (Homo sapiens, UniProt P14416); test: Radioligand binding to cloned human D2 receptor ([3H]-spiperone); settings: third value of D3/5HT2A/D2; membranes of transfected HEK-293 EBNA cells, 0.7 nM [3H]-spiperone, 1 h at RT
T3 construct: expressed in transfected cells; host or cells: HEK-293 EBNA cells (transient transfection; membrane preparation)
Protocol: as §1, §2, §3, §4, §5, §6, §7

T1 sequence (P35462 whole entry): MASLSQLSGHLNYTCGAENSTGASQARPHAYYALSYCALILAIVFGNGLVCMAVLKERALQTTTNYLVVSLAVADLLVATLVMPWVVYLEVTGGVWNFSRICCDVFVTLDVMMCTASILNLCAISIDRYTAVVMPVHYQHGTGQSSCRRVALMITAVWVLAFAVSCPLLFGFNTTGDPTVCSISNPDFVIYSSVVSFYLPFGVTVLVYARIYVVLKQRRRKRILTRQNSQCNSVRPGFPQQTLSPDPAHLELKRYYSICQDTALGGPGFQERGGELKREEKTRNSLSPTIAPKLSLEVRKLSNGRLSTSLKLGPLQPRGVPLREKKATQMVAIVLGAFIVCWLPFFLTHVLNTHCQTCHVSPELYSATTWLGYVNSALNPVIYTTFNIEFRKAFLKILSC
T2 sequence (P28223 whole entry): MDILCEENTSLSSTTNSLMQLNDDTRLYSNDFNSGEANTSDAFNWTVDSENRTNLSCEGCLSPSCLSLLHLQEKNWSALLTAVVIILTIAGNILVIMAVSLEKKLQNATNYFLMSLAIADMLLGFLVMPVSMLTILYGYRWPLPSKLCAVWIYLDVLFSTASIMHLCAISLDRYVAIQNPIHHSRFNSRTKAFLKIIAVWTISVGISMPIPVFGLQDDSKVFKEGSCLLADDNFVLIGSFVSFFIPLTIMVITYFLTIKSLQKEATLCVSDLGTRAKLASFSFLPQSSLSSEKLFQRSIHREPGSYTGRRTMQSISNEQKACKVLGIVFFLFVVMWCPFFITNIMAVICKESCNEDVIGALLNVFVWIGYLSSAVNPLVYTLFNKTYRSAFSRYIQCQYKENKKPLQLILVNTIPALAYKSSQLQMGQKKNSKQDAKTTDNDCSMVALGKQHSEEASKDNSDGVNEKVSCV
T3 sequence (P14416 whole entry): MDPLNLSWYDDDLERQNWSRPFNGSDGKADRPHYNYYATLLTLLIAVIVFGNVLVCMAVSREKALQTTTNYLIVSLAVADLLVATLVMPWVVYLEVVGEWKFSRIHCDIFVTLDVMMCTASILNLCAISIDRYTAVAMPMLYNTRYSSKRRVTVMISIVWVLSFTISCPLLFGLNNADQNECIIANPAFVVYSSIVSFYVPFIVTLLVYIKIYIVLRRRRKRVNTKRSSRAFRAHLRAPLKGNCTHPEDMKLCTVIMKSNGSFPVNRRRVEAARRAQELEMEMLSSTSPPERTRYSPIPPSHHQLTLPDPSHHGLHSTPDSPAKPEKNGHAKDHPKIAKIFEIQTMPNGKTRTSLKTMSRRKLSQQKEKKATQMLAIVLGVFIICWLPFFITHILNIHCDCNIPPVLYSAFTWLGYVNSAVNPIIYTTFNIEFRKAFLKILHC

Row | SMILES | Ki [1] | Ki [2] | Ki [3]
1 | CCC(=O)N[C@H]1CC[C@H](CCN2CCC(Oc3ccc(F)cc3Cl)CC2)CC1 [Example 18, N-trans (4-{2-[4-(2-Chloro-4-fluoro-phenoxy)-piperidin-1-yl]-ethyl}-cyclohexyl)-propionamide] | 5 nM | 2 nM | 604 nM
2 | Cc1ccc(NC(=O)N[C@H]2CC[C@H](CCN3CCC(Oc4ccc(F)cc4)CC3)CC2)cc1 [Example 10, Trans-1-(4-{2-[4-(4-Fluoro-phenoxy)-piperidin-1-yl]-ethyl}-cyclohexyl)-3-p-tolyl-urea] | 16 nM | 22 nM | 592 nM
3 | CC(=O)N[C@H]1CC[C@H](CCN2CCC(Oc3ccc(F)cc3)CC2)CC1 [Example 8, Trans N-(4-{2-[4-(4-Fluoro-phenoxy)-piperidin-1-yl]-ethyl}-cyclohexyl)-acetamide] | 50 nM | 31 nM | 843 nM
4 | COCCC(=O)N[C@H]1CC[C@H](CCN2CCC(Oc3ccc(F)cc3)CC2)CC1 [Example 3, N-(trans-4-{2-[4-(4-Fluoro-phenoxy)-piperidin-1-yl]-ethyl}-cyclohexyl)-3-methoxy-propionamide] | 48 nM | 22 nM | 1470 nM
5 | O=C(N[C@H]1CC[C@H](CCN2CCC(Oc3cc(F)c(F)cc3F)CC2)CC1)C1CCOCC1 [Example 51, Tetrahydro-pyran-4-carboxylic acid trans(4-{2-[4-(2,4,5-trifluoro-phenoxy)-piperidin-1-yl]-ethyl}-cyclohexyl)-amide] | 29 nM | 36 nM | 638 nM
6 | O=C(N[C@H]1CC[C@H](CCN2CCC(Oc3ccncc3)CC2)CC1)c1ccnc2ccccc12 [Example 74, Quinoline-4-carboxylic acid (trans-4-{2-[4-(Pyridin-4-yloxy)-piperidin-1-yl]-ethyl}-cyclohexyl)-amide] | 208 nM | 60 nM | 3000 nM
7 | Cc1nc(-c2cccc(C(=O)N[C@H]3CC[C@H](CCN4CCC(Oc5ccc(F)cc5Cl)CC4)CC3)c2)no1 [Example 16, N-trans (4-{2-[4-(2-Chloro-4-fluoro-phenoxy)-piperidin-1-yl]-ethyl}-cyclohexyl)-3-(5-methyl-[1,2,4]oxadiazol-3-yl)-benzamide] | 11 nM | 5 nM | 553 nM
8 | CC(=O)N[C@H]1CC[C@H](CCN2CCC(Oc3ccc(Cl)cc3C#N)CC2)CC1 [Example 62, N-trans-(4-{2-[4-(4-Chloro-2-cyano-Phenoxy)-piperidin-1-yl]-ethyl}-cyclohexyl)-acetamide] | 100 nM | 43 nM | 3320 nM
9 | CC(=O)N[C@H]1CC[C@H](CCN2CCC(Oc3ccc(F)cc3Cl)CC2)CC1 [Example 19, N-trans(4-{2-[4-(2-Chloro-4-fluoro-phenoxy)-piperidin-1-yl]-ethyl}-cyclohexyl)-acetamide] | 12 nM | 3 nM | 683 nM
10 | O=C(N[C@H]1CC[C@H](CCN2CCC(Oc3ccc(F)cc3Cl)CC2)CC1)c1ccnc2ccccc12 [Example 11, Quinoline-4-carboxylic acid trans(4-{2[4-(2-chloro-4-fluoro-phenoxy)-piperidin-1-yl]-ethyl}-cyclohexyl)-amide] | 17 nM | 2 nM | 321 nM
11 | O=C(N[C@H]1CC[C@H](CCN2CCC(Oc3ccc(F)cc3Cl)CC2)CC1)C1CCOCC1 [Example 15, Tetrahydro-pyran-4-carboxylic acid trans (4-{2-[4-(2-chloro-4-fluoro-phenoxy)-piperidin-1-yl]-ethyl}-cyclohexyl)-amide] | 17 nM | 2 nM | 556 nM
12 | O=C(N[C@H]1CC[C@H](CCN2CCC(Oc3cccc(Cl)c3Cl)CC2)CC1)c1ccnc2ccccc12 [Example 72, Quinoline-4-carboxylic acid trans(4-{2-[4-(2,3-dichloro-phenoxy)-piperidin-1-yl]-ethyl}-cyclohexyl)-amide] | 5 nM | 9 nM | 319 nM
13 | COCCC(=O)N[C@H]1CC[C@H](CCN2CCC(Oc3ccc(F)cc3Cl)CC2)CC1 [Example 13, N-trans (4-{2-[4-(2-Chloro-4-fluoro-phenoxy)-piperidin-1-yl]-ethyl}-cyclohexyl)-3-methoxy-propionamide] | 14 nM | 3 nM | 790 nM
14 | O=C(N[C@H]1CC[C@H](CCN2CCC(Oc3ccc(F)cc3F)CC2)CC1)c1ccnc2ccccc12 [Example 24, Quinoline-4-carboxylic acid trans(4-{2-[4-(2,4-difluoro-phenoxy)-piperidin-1-yl]-ethyl}-cyclohexyl)-amide] | 8 nM | 3 nM | 453 nM
15 | Cc1ccc(NC(=O)N[C@H]2CC[C@H](CCN3CCC(Oc4ccc(F)cc4Cl)CC3)CC2)cc1 [Example 21, 1-trans(4-{2-[4-(2-Chloro-4-fluoro-phenoxy)-piperidin-1-yl]-ethyl}-cyclohexyl)-3-p-tolyl-urea] | 3 nM | 2 nM | 697 nM
16 | O=C(Nc1ccc(Cl)cc1)N[C@H]1CC[C@H](CCN2CCC(Oc3ccc(F)cc3)CC2)CC1 [Example 9, Trans-1-(4-Chloro-phenyl)-3-(4-{2-[4-(4-fluoro-phenoxy)-piperidin-1-yl]-ethyl}-cyclohexyl)-urea] | 14 nM | 13 nM | 574 nM
